Experiment: Solubility in oil (sesame oil, benzyl benzoate), visual observation
Settings: benzyl benzoate, oil or lipid, thermodynamic from solid

solubility, > 100 mg/mL:
CCCCCCCC/C=C\CCCCCCCC(=O)OCN1C(=O)CCc2ccc(OCCCCN3CCN(c4cccc5sccc45)CC3)cc21 [Example 33, (Z)-octadec-9-enoic acid 7-[4-(4-benzo[b]thiophen-4-ylpiperazin-1-yl)butoxy]-2-oxo-3,4-dihydro-2H-quinolin-1-ylmethyl ester]
CCCCCCCCCCNC(=O)OCn1c(=O)ccc2ccc(OCCCCN3CCN(c4cccc5sccc45)CC3)cc21 [Example 34, N-decylcarbamic acid 7-[4-(4-benzo[b]thiophen-4-ylpiperazin-1-yl)butoxy]-2-oxo-2H-quinolin-1-ylmethyl ester]
CCCCNC(=O)OCn1c(=O)ccc2ccc(OCCCCN3CCN(c4cccc5sccc45)CC3)cc21 [Example 35, N-butylcarbamic acid 7-[4-(4-benzo[b]thiophen-4-ylpiperazin-1-yl)butoxy]-2-oxo-2H-quinolin-1-ylmethyl ester]
CCCCN(C)C(=O)OCn1c(=O)ccc2ccc(OCCCCN3CCN(c4cccc5sccc45)CC3)cc21 [Example 36, N-butyl-N-methylcarbamic acid 7-[4-(4-benzo[b]thiophen-4-ylpiperazin-1-yl)butoxy]-2-oxo-2H-quinolin-1-ylmethyl ester]
O=C(OCn1c(=O)ccc2ccc(OCCCCN3CCN(c4cccc5sccc45)CC3)cc21)C1CCCC1 [Example 37, cyclopentanecarboxylic acid 7-[4-(4-benzo[b]thiophen-4-ylpiperazin-1-yl)butoxy]-2-oxo-2H-quinolin-1-ylmethyl ester]
CCCCCCCCCCCCCCCCCCNC(=O)OCn1c(=O)ccc2ccc(OCCCCN3CCN(c4cccc5sccc45)CC3)cc21 [Example 38, N-octadecylcarbamic acid 7-[4-(4-benzo[b]thiophen-4-ylpiperazin-3-yl)butoxy]-2-oxo-2H-quinolin-1-ylmethyl ester]
CCCCCCCC/C=C\CCCCCCCC(=O)OCn1c(=O)ccc2ccc(OCCCCN3CCN(c4cccc5sccc45)CC3)cc21 [Example 39, (Z)-octadec-9-enoic acid 7-[4-(4-benzo[b]thiophen-4-ylpiperazin-1-yl)butoxy]-2-oxo-2H-quinolin-1-ylmethyl ester]
CCCCCC(CCCCC)C(=O)OCN1C(=O)CCc2ccc(OCCCCN3CCN(c4cccc5sccc45)CC3)cc21 [Example 40, 2-pentylheptanoic acid 7-[4-(4-benzo[b]thiophen-4-ylpiperazin-1-yl)butoxy]-2-oxo-3,4-dihydro-2H-quinolin-1-ylmethyl ester]
CCCCCCCCCCCCCCCCCCCC(=O)OCn1c(=O)ccc2ccc(OCCCCN3CCN(c4cccc5sccc45)CC3)cc21 [Example 41, icosanoic acid 7-[4-(4-benzo[b]thiophen-4-ylpiperazin-1-yl)butoxy]-2-oxo-2H-quinolin-1-ylmethyl ester]
CCCCCCCCCCCCCCCC(=O)OCn1c(=O)ccc2ccc(OCCCCN3CCN(c4cccc5sccc45)CC3)cc21 [Example 42, hexadecanoic acid 7-[4-(4-benzo[b]thiophen-4-ylpiperazin-1-yl)butoxy]-2-oxo-2H-quinolin-1-ylmethyl ester]
CCCCCCCCCCCCCCCNC(=O)OCn1c(=O)ccc2ccc(OCCCCN3CCN(c4cccc5sccc45)CC3)cc21 [Example 43, N-pentadecylcarbamic acid 7-[4-(4-benzo[b]thiophen-4-ylpiperazin-1-yl)butoxy]-2-oxo-2H-quinolin-1-ylmethyl ester]
CCCCCCCCCCCCCCCCCCN(C)C(=O)OCn1c(=O)ccc2ccc(OCCCCN3CCN(c4cccc5sccc45)CC3)cc21 [Example 44, N-methyl-N-octadecylcarbamic acid 7-[4-(4-benzo[b]thiophen-4-ylpiperazin-1-yl)butoxy]-2-oxo-2H-quinolin-1-ylmethyl ester]

Same assay, conditions: sesame oil, oil or lipid, thermodynamic from solid

solubility, > 100 mg/mL:
CCCCCCCCCCCCCCCCCCN(C)C(=O)OCn1c(=O)ccc2ccc(OCCCCN3CCN(c4cccc5sccc45)CC3)cc21 [Example 44, N-methyl-N-octadecylcarbamic acid 7-[4-(4-benzo[b]thiophen-4-ylpiperazin-1-yl)butoxy]-2-oxo-2H-quinolin-1-ylmethyl ester]

From patent US9539252B2, “Piperazine-substituted benzothiophene derivatives as antipsychotic agents” (OTSUKA PHARMACEUTICAL CO., LTD., priority 2011, dated 2017)
